The NIST ThermoML archive (doi:10.1016/j.fluid.2012.10.015)
Numbers after ± are expanded uncertainties.

Key:
[1] = Liquid; for mass density: 101.33 kPa, Vibrating tube method; for vapor or sublimation pressure: Closed cell (Static) method
[2] = refractive index (Na D-line) (dimensionless); conditions: 298.15 K; 101.33 kPa; Liquid; Standard Abbe refractometry

Compound | mass density ([1]; 298.15 K) | vapor or sublimation pressure ([1]; 298.15 K) | vapor or sublimation pressure ([1]; 308.15 K) | vapor or sublimation pressure ([1]; 318.15 K) | refractive index [2]
C[N+](=O)[O-] [nitromethane] | 1130.87 ± 2.3 kg/m3 | 4.83 ± 0.07 kPa | 7.5 ± 0.09 kPa | 12.57 ± 0.11 kPa | 1.37956 ± 0.00072
CC[N+](=O)[O-] [nitroethane] | 1044.21 ± 2.3 kg/m3 | 2.95 ± 0.05 kPa | 4.69 ± 0.06 kPa | 7.24 ± 0.07 kPa | 1.38951 ± 0.00071
CCCCCCl [1-chloropentane] | 877.089 ± 2.2 kg/m3 | 4.24 ± 0.07 kPa | 7.09 ± 0.08 kPa | 10.91 ± 0.09 kPa | 1.41015 ± 0.00068
CCCCCl [1-chlorobutane] | 881.172 ± 2.2 kg/m3 | 13.72 ± 0.15 kPa | 20.66 ± 0.19 kPa | 31.46 ± 0.23 kPa | 1.39953 ± 0.00068
